{"source": "patent US9855245B2", "about": "“Methods for improving lipid profiles using atrasentan” (AbbVie Inc., priority 2013, dated 2018)", "key": {"[1]": {"details": "cited from earlier work"}, "[2]": {"system": "subjects with type 2 diabetes and nephropathy", "assay": "Example 3: Phase 2b randomized, double-blind, placebo-controlled 8-week study with thoracic bioimpedance", "format": "in vivo, human", "details": "dose of 0.5 mg", "from_the_text": "This study also included measurement of thoracic bioimpedance to assess the potential for thoracic fluid retention with atrasentan.\nAn equal percentage of subjects in all 3 groups experienced an adverse event (81.3%). […] (Table 17).\nA mean decrease of 4 ohms in thoracic bioimpedance, as measured by the ZOE® Fluid Status Monitor, is considered clinically indicative of thoracic fluid overload. Mean thoracic bioimpedance fluctuated in all treatment groups over time, with greater mean changes in the 2 atrasentan groups than in the placebo group."}, "ob-ZSF1 rats": {"system": "ob-ZSF1 rats", "assay": "Example 5: preclinical study of hypotensive synergy, mean arterial pressure", "format": "in vivo, rat", "details": "10 mg/kg/day for 12 weeks", "from_the_text": "In the example, a preclinical animal model is used to evaluate whether atrasentan and an ARB cause a synergistic hypotensive effect."}}, "note": "Structures can show the parent of a compound that is named as a salt. Where two headings read alike, the source gives them in different places. Non-standard residues stand in square brackets, D forms with d. Residues, ends and D or L forms follow the SMILES beside them.", "data": [{"smiles": "CC(C)C[C@@H]1NC(=O)[C@@H](C(C)C)NC(=O)[C@@H]2CCCN2C(=O)[C@@H](CC(=O)O)NC(=O)[C@@H](Cc2c[nH]c3ccccc23)NC1=O", "note": "[BQ-123] (cyclo(L[dW][dD]P[dV]))", "values": [{"measurement": "mean arterial pressure, mean area under curve +/− SEM", "setting": "[1]; BQ-123 alone", "value": "−2.3", "unit": "mmHg"}, {"measurement": "mean arterial pressure, mean area under curve +/− SEM", "setting": "[1]; BQ-123 plus enalapril", "value": "−5.1", "unit": "mmHg"}]}, {"smiles": "CCCCN(CCCC)C(=O)CN1C[C@H](c2ccc3c(c2)OCO3)[C@@H](C(=O)O)[C@@H]1c1ccc(OC)cc1", "note": "[atrasentan HCl]", "values": [{"measurement": "reduction in UACR", "setting": "[2]", "value": "not demonstrated to result in a statistically significant reduction in UACR"}]}, {"smiles": "CCCCc1nc(Cl)c(CO)n1Cc1ccc(-c2ccccc2-c2nn[nH]n2)cc1", "note": "[losartan, reference compound]", "values": [{"measurement": "mean arterial pressure (MAP)", "setting": "ob-ZSF1 rats", "value": "significant decrease"}]}]}
